{
  "source": "patent US11406602B2",
  "about": "“Substances for reducing occurrence of major cardiac events comprising red yeast rice extract and omega-3 polyunsaturated fatty acid or derivative thereof” (NORDIC NATURALS, INC., priority 2007, dated 2022)",
  "origin": "cited, not measured here",
  "key": {"[1]": {"conditions": "prior art description of lovastatin"}, "patients": {"test_system": "patients", "conditions": "20 mg/day for 24 weeks"}, "[2]": {"conditions": "10, 20, and 40 mg/day"}},
  "data": [
    {"smiles": "CC[C@H](C)C(=O)O[C@H]1C[C@@H](C)C=C2C=C[C@H](C)[C@H](CC[C@@H]3C[C@@H](O)CC(=O)O3)[C@H]21", "note": "[Lovastatin, lovastatin]", "values": [
      {"measurement": "decrease in triglycerides", "setting": "slight decreases", "value": "5-10%"},
      {"measurement": "increase in high density lipoproteins (HDL)", "setting": "slight to moderate increases", "value": "10-20%"},
      {"measurement": "water solubility", "setting": "[1]", "value": "water insoluble"},
      {"measurement": "fall in total cholesterol", "setting": "patients", "value": 26, "unit": "%"},
      {"measurement": "fall in triglycerides", "setting": "patients", "value": 12, "unit": "%"},
      {"measurement": "reduction in LDL", "setting": "[2]", "value": "21-32%"},
      {"measurement": "reduction in total cholesterol", "setting": "[2]", "value": "16-24%"},
      {"measurement": "reduction in triglycerides", "setting": "[2]; higher reduction at lower dosage", "value": "10 to 6", "unit": "%"}
    ]}
  ]
}
